Measurements as given in ChEMBL document CHEMBL3994613, “Diaryltriazenes as antibacterial agents against methicillin resistant Staphylococcus aureus (MRSA) and Mycobacterium smegmatis” (Eur J Med Chem, 2017).
≈ marks a conversion by molar mass, not a printed value.

Legend:
[1] = tested on: Mycolicibacterium smegmatis; assay: Antimycobacterial activity against Mycobacterium smegmatis MC2 155 after 3 days by broth macrodilution method; type: functional; settings: str. MC2 155, 72 h
Staphylococcus aureus = assay: Antibacterial activity against methicillin-resistant Staphylococcus aureus USA300 by broth microdilution method

| Compound | MIC [1] [µg/mL] | MIC (Staphylococcus aureus) [µg/mL] |
| --- | --- | --- |
| CC1(C)S[C@@H]2[C@H](NC(=O)[C@H](N)c3ccccc3)C(=O)N2[C@H]1C(=O)O [AMPICILLIN] | 128 (≈ 366 µM) | – |
| CC1(C)S[C@@H]2[C@H](NC(=O)C(C(=O)O)c3ccccc3)C(=O)N2[C@H]1C(=O)O (some centres not stated) [CARBENICILLIN] | 512 (≈ 1350 µM) | – |
| CO[C@@]1(NC(=O)Cc2cccs2)C(=O)N2C(C(=O)O)=C(COC(N)=O)CS[C@@H]21 [CEFOXITIN] | 2 to 4 (≈ 4.68 to 9.36 µM) | – |
| CO/N=C(\C(=O)N[C@@H]1C(=O)N2C(C(=O)O)=C(CSc3nc(=O)c(O)nn3C)CS[C@H]12)c1csc(N)n1 [CEFTRIAXONE] | 32 (≈ 57.7 µM) | – |
| N[C@@H]1CONC1=O [CYCLOSERINE] | 105 (≈ 1030 µM) | – |
| CC(=O)NC[C@H]1CN(c2ccc(N3CCOCC3)c(F)c2)C(=O)O1 [LINEZOLID] | – | 2 to 4 (≈ 5.93 to 11.9 µM) |
| C/C(=C\C(=O)OCCCCCCCCC(=O)O)C[C@@H]1OC[C@H](C[C@@H]2O[C@H]2[C@@H](C)[C@H](C)O)[C@@H](O)[C@H]1O [MUPIROCIN] | – | 0.5 to 64 (≈ 0.999 to 128 µM) |
| Cc1onc(-c2ccccc2)c1C(=O)N[C@@H]1C(=O)N2[C@@H]1SC(C)(C)[C@@H]2C(=O)O [OXACILLIN] | 32 (≈ 79.7 µM) | 16 to 32 (≈ 39.9 to 79.7 µM) |
| NC[C@H]1O[C@H](O[C@H]2[C@H](O)[C@@H](O[C@H]3O[C@H](CO)[C@@H](O)[C@H](N)[C@H]3O)[C@H](N)C[C@@H]2N)[C@H](N)C[C@@H]1O [TOBRAMYCIN] | – | 0.5 to 2 (≈ 1.07 to 4.28 µM) |
| CN[C@H](CC(C)C)C(=O)N[C@H]1C(=O)N[C@@H](CC(N)=O)C(=O)N[C@H]2C(=O)N[C@H]3C(=O)N[C@H](C(=O)N[C@H](C(=O)O)c4cc(O)cc(O)c4-c4cc3ccc4O)[C@H](O)c3ccc(c(Cl)c3)Oc3cc2cc(c3O[C@@H]2O[C@H](CO)[C@@H](O)[C@H](O)[C@H]2O[C@H]2C[C@](C)(N)[C@H](O)[C@H](C)O2)Oc2ccc(cc2Cl)[C@H]1O [VANCOMYCIN] | 45 (≈ 31.1 µM) | 0.25 to 2 (≈ 0.173 to 1.38 µM) |
